For data set [1] the following is noted: rats, rectal suspension, 5-FU 50 mg/kg.
Protocol: An amount (corresponding to 50 mg/kg) of 5-FU and 5 mg of α-cyclodextrin are finely milled in a mortar and added to 0.1 ml of physiological saline. The mixture is subjected to ultrasonic treatment (27 KHz, 5 minutes). The thus-obtained suspension is rectally administered to rats in the manner in Experimental Example 7. Blood samples are taken from the tail vein at timed intervals and 5-FU plasma levels are determined by bioassay using Micrococcus luteus ATCC-10240 as the test organism. In the control group, the procedure is followed with α-cyclodextrin-free 5-FU.
The conditions of data set [2]: rats, rectal Witepsol W-35 suppository, sodium cefazolin 50 mg/kg.
Protocol: Thereafter, blood sampling from the tail vein is performed at timed intervals and the plasma cefazolin level is determined by bioassay using Bacillus subtilis PCI-219 as the test organism.
Data set [3] relates to prothrombin time (blood coagulation time). As to the kind of experiment: Prothrombin time (blood coagulation time) after rectal heparin sodium in rats. It counts as in vivo, rat. Conditions: heparin sodium 600 U. As to the method: A 0.27 ml portion of each blood sample is placed in a polyethylene microtube containing 0.03 ml of 3.8 w/v percent of sodium citrate, the tube contents are stirred well and then centrifuged, and the plasma portion is subjected to prothrombin time (blood coagulation time) determination using a thromboplastin reagent (Simplastin, Ono Pharmaceutical Co., Japan). In the control group, the same procedure is followed with α-cyclodextrin-free heparin sodium. […] An increased absorption of heparin is thus shown.

Data set [4] can be described thus: Saturation solubility of cyclodextrin. The class given is physicochemical. Particulars: isotonic buffer solution (pH 7.4).
A further data set in a line: in vivo. Conditions: female, SD, rat, 100 ug/kg, Concentration of TAP-144 in serum.
For data set [5] the following is noted: rat, in vivo. As to the method: Male SD strain rats (body weights 250 g, approx.) fasted for 16 hours are used in groups of at least 3 animals. Each animal is anesthetized with pentobarbital and administered nasal medication in accordance with the method described in International Journal of Pharmaceutics 7, 317 (1981). Then, 0.1 ml/kg of insulin solution is directly administered into the nasal cavity with a micropipette via the nostril.
In 0.1 ml of physiological saline are dissolved 100 μg of TAP-144 and 5 mg of α-cyclodextrin, and in the manner of Experimental Example 1, the 0.1 ml/kg equivalent of the solution is administered into the nasal cavity (the dose of TAP-144: […]).

The conditions of data set [6]: rat, in vivo. The source holds these as a separate data set.
Protocol: (§1) SD-strain mature female rats (weighing about 270 g, 14 to 18 weeks old, in groups of 4 to 5 individuals) at diestrus as selected by the vaginal smear test covering a period of at least one week are anesthetized with pentobarbital and phenobarbital at 8-11 a.m., and a solution prepared by dissolving 500 μg of TAP-144 and 20 mg (2%), 50 mg (5%) or 100 mg (10%) of α-cyclodextrin in physiological saline in an amount to make 1 ml is administered into the vagina with about 12 mg of cotton soaked therewith at the dose level of 0.2 ml/kg (corresponding 100 μg/kg of TAP-144). Blood samples are taken from the tail vein at timed intervals and assayed for the serum TAP-144 level by radioimmunoassay [refer to Endocrinologia Japonica, vol.

The source of these data is patent US4659696A, “Pharmaceutical composition and its nasal or vaginal use” (Takeda Chemical Industries, Ltd., priority 1982, dated 1987).

Where two headings read alike, the source gives them in different places.

Protocol for in vivo: as §1

On to `O=c1[nH]cc(F)c(=O)[nH]1` [5-FU, 5-fluorouracil], for which the “AUC (0-4 hr.)” value in data set [1] (5% (w/v) α-cyclodextrin) was 4.0; in data set [1] (no cyclodextrin), 1.1. The Plasma level amounted to 1370 ng/mL in data set [1] (5% (w/v) α-cyclodextrin, 0.5 hr.); 1720 ng/mL in data set [1] (5% (w/v) α-cyclodextrin, 1 hr.); 1050 ng/mL in data set [1] (5% (w/v) α-cyclodextrin, 2 hr.); 490 ng/mL in data set [1] (5% (w/v) α-cyclodextrin, 4 hr.); 970 ng/mL in data set [1] (no cyclodextrin, 0.5 hr.); 430 ng/mL in data set [1] (no cyclodextrin, 1 hr.). In addition, the Plasma level in data set [1] (no cyclodextrin, 2 hr.) worked out at 130 ng/mL; in data set [1] (no cyclodextrin, 4 hr.), 60 ng/mL.
In the case of `Cc1nnc(SCC2=C(C(=O)O)N3C(=O)[C@@H](NC(=O)Cn4cnnn4)[C@H]3SC2)s1` [sodium cefazolin], the Plasma level in data set [2] (10% (w/w) α-cyclodextrin, 0.5 hr.) turned out to be 3840 ng/mL; in data set [2] (10% (w/w) α-cyclodextrin, 1 hr.) it was 5320 ng/mL; in data set [2] (10% (w/w) α-cyclodextrin, 2 hr.), 7370 ng/mL; in data set [2] (10% (w/w) α-cyclodextrin, 3 hr.) it was 6260 ng/mL; in data set [2] (10% (w/w) α-cyclodextrin, 4 hr.), 5320 ng/mL; in data set [2] (no cyclodextrin, 0.5 hr.), 1760 ng/mL. The Plasma level in data set [2] (no cyclodextrin, 1 hr.) amounted to 2210 ng/mL; in data set [2] (no cyclodextrin, 2 hr.), 3000 ng/mL; in data set [2] (no cyclodextrin, 3 hr.), 3490 ng/mL; in data set [2] (no cyclodextrin, 4 hr.), 2540 ng/mL.
Take heparin sodium: the Blood coagulation time was 17.2 s in data set [3] (5% (w/v) α-cyclodextrin, 0.5 hr., before administration 14.3); 18.4 s in data set [3] (5% (w/v) α-cyclodextrin, 0.75 hr., before administration 14.3); 19.7 s in data set [3] (5% (w/v) α-cyclodextrin, 1 hr., before administration 14.3); 18.9 s in data set [3] (5% (w/v) α-cyclodextrin, 1.5 hr., before administration 14.3); 19.4 s in data set [3] (5% (w/v) α-cyclodextrin, 2 hr., before administration 14.3); 14.3 s in data set [3] (no cyclodextrin, 0.5 hr., before administration 13.6). In addition, the Blood coagulation time in data set [3] (no cyclodextrin, 0.75 hr., before administration 13.6) was 13.7 s; in data set [3] (no cyclodextrin, 1 hr., before administration 13.6) it was 14.7 s; in data set [3] (no cyclodextrin, 1.5 hr., before administration 13.6), 15.3 s; in data set [3] (no cyclodextrin, 2 hr., before administration 13.6), 14.7 s.
`OC[C@H]1O[C@@H]2O[C@H]3[C@H](O)[C@@H](O)[C@@H](O[C@H]4[C@H](O)[C@@H](O)[C@@H](O[C@H]5[C@H](O)[C@@H](O)[C@@H](O[C@H]6[C@H](O)[C@@H](O)[C@@H](O[C@H]7[C@H](O)[C@@H](O)[C@@H](O[C@H]8[C@H](O)[C@@H](O)[C@@H](O[C@H]1[C@H](O)[C@H]2O)O[C@@H]8CO)O[C@@H]7CO)O[C@@H]6CO)O[C@@H]5CO)O[C@@H]4CO)O[C@@H]3CO` [β-cyclodextrin]: the saturation solubility entry in data set [4] is recorded as “about 1.8%”.
In the case of `CCNC(=O)[C@@H]1CCCN1C(=O)[C@H](CCCNC(=N)N)NC(=O)[C@H](CC(C)C)NC(=O)[C@@H](CC(C)C)NC(=O)[C@H](Cc1ccc(O)cc1)NC(=O)[C@H](CO)NC(=O)[C@H](Cc1c[nH]c2ccccc12)NC(=O)[C@H](Cc1c[nH]cn1)NC(=O)[C@@H]1CCC(=O)N1` [TAP-144], in “in vivo”, the level at 0.5 h came out at 28.1 ng/mL, the level at 2 h was determined as 39.2 ng/mL and the level at 4 h was 32.1 ng/mL. Moreover, the increase in bioavailability result in data set [5] was “about 3.5 times”. For the same compound, the “Concentration of TAP-144 in serum” value in data set [6] (female, SD, 100 ug/kg, 0.5 h) turned out to be 45.3 ng/mL. Besides, the “promotion of vaginal absorption” value in data set [6] is “about 6 times”.
